As a reminder, the IC50 is the concentration needed to halve the response being measured.

Consider 1 compound from PMC6026185 (Scientific Reports, 2018).

Data set [1] deals with hNKCC2 isoform F. The following applies: Xenopus oocytes; ref Payne et al.[57]; Isenring et al.[58]; Plata et al.[59]; Carota et al.[56]; Lykke et al.[60]; Lykke et al.[29]; read-out: IC50 (µM) NKCC2 (hF); cited from earlier work.
Data set [2] relates to mNKCC2 isoform A. More on the design: method as in ref Payne et al.[57]; Isenring et al.[58]; Plata et al.[59]; Carota et al.[56]; Lykke et al.[60]; Lykke et al.[29]. The following applies: Xenopus oocytes; ref Payne et al.[57]; Isenring et al.[58]; Plata et al.[59]; Carota et al.[56]; Lykke et al.[60]; Lykke et al.[29]; read-out: IC50 (µM) NKCC2 (mA); cited from earlier work.

In data set [3] the test system is hNKCC1. The following applies: HEK-293 cells; activated state; NKCC1 isoforms not differentiated; ref Payne et al.[57]; Isenring et al.[58]; Plata et al.[59]; Carota et al.[56]; Lykke et al.[60]; Lykke et al.[29]; cited from earlier work.
For data set [4] the following is noted: ref [9],[10]; cited from earlier work.
Data set [5] addresses T1, hNKCC1B (Homo sapiens, UniProt P55011).
T1 construct: expressed in transfected cells; host or cells: Xenopus laevis oocytes injected with cRNA (pXOOM vector)
T1 sequence (P55011 1-1196 isoform P55011-3): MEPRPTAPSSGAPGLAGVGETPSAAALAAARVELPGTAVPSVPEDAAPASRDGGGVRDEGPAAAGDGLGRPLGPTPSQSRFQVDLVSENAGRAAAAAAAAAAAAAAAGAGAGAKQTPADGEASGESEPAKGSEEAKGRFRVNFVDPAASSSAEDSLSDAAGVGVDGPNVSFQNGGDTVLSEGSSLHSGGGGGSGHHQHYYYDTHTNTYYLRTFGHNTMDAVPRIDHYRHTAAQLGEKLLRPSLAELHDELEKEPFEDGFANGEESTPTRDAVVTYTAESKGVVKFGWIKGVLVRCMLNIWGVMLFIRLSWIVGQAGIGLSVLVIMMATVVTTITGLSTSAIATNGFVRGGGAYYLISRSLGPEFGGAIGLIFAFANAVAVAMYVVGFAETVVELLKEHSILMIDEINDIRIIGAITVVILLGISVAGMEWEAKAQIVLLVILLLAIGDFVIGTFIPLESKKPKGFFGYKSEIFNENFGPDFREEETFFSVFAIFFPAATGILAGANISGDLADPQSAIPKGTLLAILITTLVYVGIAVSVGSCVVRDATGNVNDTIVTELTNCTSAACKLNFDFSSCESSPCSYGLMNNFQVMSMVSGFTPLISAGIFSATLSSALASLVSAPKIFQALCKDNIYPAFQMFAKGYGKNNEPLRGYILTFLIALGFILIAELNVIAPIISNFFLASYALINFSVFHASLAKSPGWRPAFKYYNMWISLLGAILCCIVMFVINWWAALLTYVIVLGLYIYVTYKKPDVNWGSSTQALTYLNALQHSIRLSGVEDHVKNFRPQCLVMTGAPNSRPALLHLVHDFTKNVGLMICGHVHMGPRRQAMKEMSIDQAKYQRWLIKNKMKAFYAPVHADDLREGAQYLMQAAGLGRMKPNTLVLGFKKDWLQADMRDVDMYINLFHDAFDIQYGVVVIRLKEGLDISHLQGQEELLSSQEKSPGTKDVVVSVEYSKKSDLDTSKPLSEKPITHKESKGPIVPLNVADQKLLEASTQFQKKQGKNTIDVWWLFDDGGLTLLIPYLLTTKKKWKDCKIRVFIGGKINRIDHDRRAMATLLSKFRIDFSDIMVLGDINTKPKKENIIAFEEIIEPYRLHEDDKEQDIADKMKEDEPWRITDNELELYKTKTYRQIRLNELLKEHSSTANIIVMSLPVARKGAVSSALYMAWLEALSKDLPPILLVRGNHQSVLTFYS
Put plainly: 86Rb+ uptake in hNKCC1B-expressing Xenopus laevis oocytes. It counts as cell-based. The following applies: 5 min, corrected for uninjected oocytes, median and range of 3–7 experiments.
Excerpt: Human NKCC1A (NM_001046, obtained from Prof. Biff Forbush, Yale School of Medicine, CT) and NKCC1B (prepared by site-directed mutagenesis from hNKCC1A as described below) were subcloned into the oocytes expression vector pXOOM, linearized downstream from the poly-A segment, and in vitro transcribed using T7-mMessage Machine according to manufacturer’s instructions (Ambion, Austin, TX). cRNA was then extracted with MEGAclear (Ambion, Austin, TX) and micro-injected into defolliculated Xenopus laevis oocytes (25 ng RNA/oocyte). The oocytes were kept in Kulori medium (in mM: 90 NaCl, 1 KCl, 1 CaCl2, 1 MgCl2, 5 Hepes, pH 7.4, 182 mOsm) for 5–6 days at 19 °C prior to experiments.
To activate NKCC1A and NKCC1B prior to the ^86Rb^+ uptake measurements aimed at measuring NKCC-mediated fluxes, hNKCC1A- or hNKCC1B-expressing oocytes or uninjected control oocytes (4–13 oocytes per well) were pre-incubated for 30 min at room temperature in a K^+-free solution (containing in mM: 5 choline chloride, 95 NaCl, 1 MgCl2, 1 CaCl2, 10 Hepes, pH 7.4, 207 mOsm), which causes shrinkage of the oocyte and thus activation of NKCC1A[22]. […]
Significance of differences in transport activity of hNKCC1A or hNKCC1B expressing oocytes vs. uninjected oocytes were analyzed by the Kruskal-Wallis test followed by Dunn’s multiple comparisons test. […]

`CCCCNc1cc(C(=O)O)cc(S(N)(=O)=O)c1Oc1ccccc1` [Bumetanide]: the IC50 in data set [1] is 0.16 µM; in data set [2] it was 2 µM; in data set [3] it was 0.16 to 0.28 µM; in data set [5], 0.842 µM. Further, the plasma protein binding in data set [4] is on record as over 95%.
